Results published in paper PMC3465347, “Regulation of NF-κB Activation through a Novel PI-3K-Independent and PKA/Akt-Dependent Pathway in Human Umbilical Vein Endothelial Cells” (PLoS ONE, 2012).

Key:
[1] = tested on: human endothelial cells (HUVECs); assay: MTT cytotoxicity assay; format: cell-based
Protocol: The cytotoxicity of MPG and its derivatives was analyzed by colorimetric assay using MTT (Thiazolyl blue tetrazolium bromide) reagent as described previously. All experiments were performed at least 3 times in triplicate wells. From this assay, the percentage viability (% viability) of the cells at various concentrations of each compound was determined by normalization to control wells that contained cells incubated in vehicle (0.25% DMSO or cell culture medium) and which were considered 100% viable. The highest concentration at which the viability of the cells was >95% was denoted as the maximum tolerable concentration for that compound.

[2] = tested on: TNF-α-induced ICAM-1 expression on human endothelial cells; assay: Cell-ELISA for ICAM-1 expression; format: cell-based
Protocol: (§1) The endothelial cells were incubated with or without MPG and its derivatives at various concentrations for 2 h followed by treatment with TNF-α (10 ng/ml) for 16 h for ICAM-1 and VCAM-1 expression and 4 h for E-selectin expression. A Cell-ELISA was used to assess the expression of ICAM-1, VCAM-1 and E-selectin on the surface of endothelial cells as described previously.

[3] = tested on: TNF-α-induced VCAM-1 expression on human endothelial cells; assay: Cell-ELISA for VCAM-1 expression; format: cell-based; conditions: added 2–4 h prior to TNF-α stimulation; data not shown
Protocol: as §1

[4] = tested on: TNF-α-induced E-selectin expression on human endothelial cells; assay: Cell-ELISA for E-selectin expression; format: cell-based; conditions: added 2–4 h prior to TNF-α stimulation; data not shown
Protocol: as §1

[5] = tested on: ICAM-1 mRNA in endothelial cells; assay: RT-PCR of ICAM-1 transcript; format: cell-based, human; conditions: 400 µM pretreatment, TNF-α 10 ng/ml 4 h
Protocol: (§2) In order to examine whether MPTAG reduced the mRNA transcript levels of cell adhesion molecules genes, the endothelial cells were pretreated with 400 µM MPTAG for 2 h before induction with TNF-α for 4 h followed by RT-PCR. RNA was isolated from MPTAG-treated cells according to a modified guanidinium thiocyanate procedure. The expression of the transcripts for ICAM-1, VCAM-1 and E-selectin was evaluated by RT-PCR [45]. β-Actin levels expressed under similar conditions were used as a loading control.

[6] = tested on: VCAM-1 mRNA in endothelial cells; assay: RT-PCR of VCAM-1 transcript; format: cell-based, human; conditions: 400 µM pretreatment, TNF-α 10 ng/ml 4 h
Protocol: as §2

[7] = tested on: IκBα in endothelial cells; assay: IκBα phosphorylation and degradation western blot; format: cell-based, human; conditions: 400 µM, TNF-α 30 mins
Protocol: (§3) Nuclear and cytoplasmic extracts were fractionated on SDS-PAGE with equal amount of proteins per well and transferred onto PVDF membranes and those membranes were incubated with appropriate primary antibodies and treated with HRP conjugated secondary antibodies followed by detection with DAB-H2O2 system. β-tubulin, α-actin and Lamin B1 were used as loading controls. Antibodies against NF-κBp65, phosphoNF-κBp65, IκBα, phosphoIκBα, IKK-β, Akt, phosphoAkt (Ser473) and phosphoAkt (Thr308) were used.

[8] = molecular target: T1, IKK-β (Homo sapiens, UniProt O14920); assay: Direct IKK-β kinase assay on immunoprecipitated IKK-β; format: biochemical; conditions: immunoprecipitated IKK-β incubated with MPTAG
T1 construct: Endogenous IKK complexes were immunoprecipitated in the following reaction mixtures; endogenous in cells; host or cells: HUVEC (uninduced and TNF-α-induced), anti-IKK-β immunoprecipitate
Protocol: In brief, confluent HUVECs were incubated with or without MPTAG and were stimulated with TNF-α (10 ng/ml) for 15 mins. The cells were washed and lysed in Lysis buffer containing 50 mM HEPES, pH 7.6, 10% glycerol, 1 mM sodium orthovanadate, 100 mM NaCl, 1% NP-40, 1 mM EDTA and protease inhibitor cocktail and allowed to swell on ice for 45 mins. Following centrifugation at 13,000 rpm for 45 mins, the supernatants were collected as “total cell extracts” and stored at −70°C. Immunoprecipitation was performed as per the instructions of Protein G immunoprecipitation kit (Sigma Aldrich, USA). Endogenous IKK complexes were immunoprecipitated in the following reaction mixtures: 100–300 µg of total cell extracts were incubated with 2–4 µg anti-IKK-β or PKAα antibody in 100 µl 1× IP buffer. After incubation for 16 h at 4°C with constant shaking, 50 µl of activated protein G beads were added and the mixture was incubated under rotation for an additional 3 h at 4°C.
Kinase assay was performed as previously described. Immunoprecipitates from 100 µg of total cell extracts were used for kinase assays. The reaction mixture consisted of kinase buffer (20 mM Tris Cl, pH 7.6, 1 mM EDTA, 1 mM sodium orthovanadate, 20 mM MgCl2, 2 mM DTT), 2 µg GST-IκBα(1–54), 5 µM ATP and 1 µCi [γ ^32P] ATP in a volume of 30 µl. […]

[9] = tested on: Akt phosphorylation in HUVECs; assay: Akt phosphorylation western blot; format: cell-based, human
Protocol: as §3

[10] = tested on: ERK1/2; assay: ERK1/2 activation western blot; format: cell-based, human; conditions: MPTAG pretreatment
[11] = tested on: PI-3K; assay: PI-3K activity assay; format: cell-based, human; conditions: pretreatment, HUVECs
From the text: The catalytic domain of PI-3K was immunoprecipitated from the stimulated and unstimulated endothelial in presence and absence of various compound treatment using an anti-p85α (N-18) antibody. The immunoprecipated proteins were subjected to kinase activity assay using a PI substrate, diC8 followed by detection of the PI(3)P as per the instructions of the Class III PI-3kinase kit (Echelon, USA).

[12] = molecular target: T2, PKA (Homo sapiens, UniProt P17612); assay: PKA activity assay; format: cell-based
T2 construct: PKA was immunoprecipitated from the total cell lysates of unstimulated and TNF-α-stimulated endothelial cells; endogenous in cells; host or cells: HUVEC (treated with MPTAG, SQ 22536, H-89 ± TNF-α), anti-PKAα immunoprecipitate
From the text: PKA was immunoprecipitated from the total cell lysates of unstimulated and TNF-α-stimulated endothelial cells in presence and absence of treatment with agents indicated in Figure 7 using anti-PKAα (W-18) antibody. The immunoprecipates were subjected to kinase activity assay using a Bisamide Rhodamine 110 peptide substrate as per the instructions of the Profluor PKA assay kit (Promega, USA).

T1 sequence (O14920 whole entry): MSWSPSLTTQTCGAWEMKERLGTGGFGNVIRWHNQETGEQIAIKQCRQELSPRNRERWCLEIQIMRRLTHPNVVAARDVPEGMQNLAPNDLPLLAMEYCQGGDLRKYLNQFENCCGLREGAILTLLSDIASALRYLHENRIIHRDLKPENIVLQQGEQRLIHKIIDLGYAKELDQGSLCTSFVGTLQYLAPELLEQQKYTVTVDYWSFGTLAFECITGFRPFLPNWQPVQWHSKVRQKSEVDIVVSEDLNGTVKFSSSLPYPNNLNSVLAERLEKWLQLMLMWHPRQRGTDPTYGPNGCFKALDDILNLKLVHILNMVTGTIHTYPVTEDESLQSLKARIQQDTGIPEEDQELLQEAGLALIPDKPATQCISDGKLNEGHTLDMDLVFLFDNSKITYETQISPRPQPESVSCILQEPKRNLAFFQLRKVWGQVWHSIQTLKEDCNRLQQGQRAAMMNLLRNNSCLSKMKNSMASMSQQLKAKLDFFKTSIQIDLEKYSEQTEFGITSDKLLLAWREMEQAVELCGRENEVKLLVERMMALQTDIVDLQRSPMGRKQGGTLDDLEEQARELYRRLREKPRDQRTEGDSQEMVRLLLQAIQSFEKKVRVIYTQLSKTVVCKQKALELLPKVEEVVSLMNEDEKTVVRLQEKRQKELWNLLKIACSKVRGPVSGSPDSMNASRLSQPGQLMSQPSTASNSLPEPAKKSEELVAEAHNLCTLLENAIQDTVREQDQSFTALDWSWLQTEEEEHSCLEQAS

SMILES: CC(=O)OC[C@H]1O[C@@H](Oc2c(C)occc2=O)[C@H](OC(C)=O)[C@@H](OC(C)=O)[C@@H]1OC(C)=O [MPTAG, 2-methyl-pyran-4-one-3-O-β-D-2′,3′,4′,6′-tetra-O-acetyl glucopyranoside]
- morphology and viability in HUVECs ([1]; 400 µM): without affecting
- cytotoxicity compared to parent compound MPG and the other two derivatives ([1]; MTT, human endothelial cells): less cytotoxic
- inhibition of ICAM-1 ([2]; added 2–4 h prior to TNF-α stimulation, data not shown): maximum inhibition
- rank among derivatives for inhibition of TNF-α-induced ICAM-1, VCAM-1, E-selectin expression and neutrophil adhesion ([2]; human endothelial cells, Table S2): most active derivative
- inhibition of VCAM-1 [3]: maximum inhibition
- inhibition of E-selectin [4]: maximum inhibition
- TNF-α-induced ICAM-1 mRNA level [5]: significantly reduced
- TNF-α-induced VCAM-1 mRNA level [6]: significantly reduced
- TNF-α-induced degradation of IκBα [7]: inhibited
- TNF-α-induced phosphorylation of IκBα [7]: inhibited
- activity of IKK-β by direct interaction [8]: did not affect
- protein levels of Akt ([9]; 400 µM): without affecting
- inhibitory effect of MPTAG on TNF-α-induced Akt phosphorylation when H-89 added prior ([9]; H-89 added prior to MPTAG): completely abolished
- TNF-α-induced phosphorylation of Akt at Ser473 ([9]; MPTAG 400 µM, TNF-α 30 mins): inhibited
- TNF-α-induced phosphorylation of Akt at Thr308 ([9]; MPTAG 400 µM, TNF-α 30 mins): inhibited
- TNF-α-induced Akt phosphorylation (Thr308), independently of wortmannin ([9]; with or without wortmannin before MPTAG): dose-dependently inhibited
- TNF-α-induced ERK activation [10]: no effect
- TNF-α-induced PI-3K activity [11]: no effect
- PKA activity in unstimulated HUVECs, MPTAG and SQ 22536 added together ([12]; MPTAG + SQ 22536): remained increased
- PKA activity in TNF-α-stimulated HUVECs ([12]; MPTAG alone or together with SQ 22536): restored PKA activity
